Measurements as given in PubChem BioAssay AID1963980 (Molecular Pharmacology Branch, DTP, NCI, 2024).

System: 475296-252-R-J1-PDC spheroid viability
Test: Anticancer human tumor 475296-252-R-J1-PDC patient-derived rectal carcinoma cell line growth inhibition [PI3K]
Conditions: spheroids with HUVEC and MSC; for IC50: curve of first compound; for viability, T/C: stronger effect = lower value
Procedure, shortened: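 Combination activity was assessed by viability in multicellular tumor spheroids carrying HUVEC and MSC components. Agents were tested with PI3K inhibitors from a Cmax-based top dose (or 10 microM) downward in half-log increments.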
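Also: spheroids exposed to agents for seven days before readout.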

CC1(C)CCC(Nc2ncc(C(F)(F)F)c(-c3c[nH]c4c(P(C)(C)=O)c(C#N)ccc34)n2)CN1 (configuration not stated) + Cc1nc(NC(=O)N2CCCC2C(N)=O)sc1-c1ccnc(C(C)(C)C(F)(F)F)c1
IC50 (second compound 0.0316 µM): > 10 µM
IC50 (second compound 0.1 µM): > 10 µM
IC50 (second compound 0.316 µM): > 10 µM
IC50 (second compound 1 µM): > 10 µM
IC50 (second compound 3.16 µM): > 10 µM
IC50 (second compound 10 µM): > 10 µM
viability, T/C (second compound 0.0316 µM, first compound 0.0316 µM): 89.6%
viability, T/C (second compound 0.0316 µM, first compound 0.1 µM): 90.4%
viability, T/C (second compound 0.0316 µM, first compound 0.316 µM): 119%
viability, T/C (second compound 0.0316 µM, first compound 1 µM): 139%
viability, T/C (second compound 0.0316 µM, first compound 3.16 µM): 178%
viability, T/C (second compound 0.0316 µM, first compound 10 µM): 82.4%
viability, T/C (second compound 0.1 µM, first compound 0.0316 µM): 97.2%
viability, T/C (second compound 0.1 µM, first compound 0.1 µM): 96.4%
viability, T/C (second compound 0.1 µM, first compound 0.316 µM): 106%
viability, T/C (second compound 0.1 µM, first compound 1 µM): 142%
viability, T/C (second compound 0.1 µM, first compound 3.16 µM): 176%
viability, T/C (second compound 0.1 µM, first compound 10 µM): 91.7%
viability, T/C (second compound 0.316 µM, first compound 0.0316 µM): 95.2%
viability, T/C (second compound 0.316 µM, first compound 0.1 µM): 104%
viability, T/C (second compound 0.316 µM, first compound 0.316 µM): 97.3%
viability, T/C (second compound 0.316 µM, first compound 1 µM): 129%
viability, T/C (second compound 0.316 µM, first compound 3.16 µM): 193%
viability, T/C (second compound 0.316 µM, first compound 10 µM): 83.2%
viability, T/C (second compound 1 µM, first compound 0.0316 µM): 100%
viability, T/C (second compound 1 µM, first compound 0.1 µM): 111%
viability, T/C (second compound 1 µM, first compound 0.316 µM): 110%
viability, T/C (second compound 1 µM, first compound 1 µM): 143%
viability, T/C (second compound 1 µM, first compound 3.16 µM): 165%
viability, T/C (second compound 1 µM, first compound 10 µM): 81.5%
viability, T/C (second compound 3.16 µM, first compound 0.0316 µM): 99.3%
viability, T/C (second compound 3.16 µM, first compound 0.1 µM): 106%
viability, T/C (second compound 3.16 µM, first compound 0.316 µM): 109%
viability, T/C (second compound 3.16 µM, first compound 1 µM): 121%
viability, T/C (second compound 3.16 µM, first compound 3.16 µM): 139%
viability, T/C (second compound 3.16 µM, first compound 10 µM): 72.9%
viability, T/C (second compound 10 µM, first compound 0.0316 µM): 104%
viability, T/C (second compound 10 µM, first compound 0.1 µM): 97.1%
viability, T/C (second compound 10 µM, first compound 0.316 µM): 94%
viability, T/C (second compound 10 µM, first compound 1 µM): 107%
viability, T/C (second compound 10 µM, first compound 3.16 µM): 121%
viability, T/C (second compound 10 µM, first compound 10 µM): 62.9%
